# Where two headings read alike, the source gives them in different places. Where a SMILES comes first, the peptide text is derived from it. Bridges are numbered along the chain shown (N, C = ends). Where no end group is shown, it is not given here.
# How the values were obtained:
# HtrA1 FL = target: T1, HtrA1 FL (Homo sapiens, UniProt Q92743); format: binding; conditions: read-out: Kd(μM) SPR
# T1 construct: HtrA1 (Q23-P480, 5654, Tni Baculovirus); made in house; host or cells: Trichoplusia ni (Tni) cells, baculovirus
# T1 sequence (Q92743 23-480): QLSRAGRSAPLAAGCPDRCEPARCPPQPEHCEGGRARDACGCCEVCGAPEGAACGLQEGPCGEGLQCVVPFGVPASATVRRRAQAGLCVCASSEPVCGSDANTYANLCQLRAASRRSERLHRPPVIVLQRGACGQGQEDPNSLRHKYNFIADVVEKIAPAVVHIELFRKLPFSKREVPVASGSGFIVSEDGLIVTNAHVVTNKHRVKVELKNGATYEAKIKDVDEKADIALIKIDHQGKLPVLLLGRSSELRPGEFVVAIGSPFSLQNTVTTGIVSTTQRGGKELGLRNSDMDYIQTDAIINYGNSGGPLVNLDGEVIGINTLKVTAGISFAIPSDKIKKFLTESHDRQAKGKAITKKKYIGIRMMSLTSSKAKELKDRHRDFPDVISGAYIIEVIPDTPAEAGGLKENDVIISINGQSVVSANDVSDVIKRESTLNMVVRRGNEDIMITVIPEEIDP
# HtrA1 = format: binding, human; conditions: ratio of signal for target protein over BSA background
# Notch2Long = test: Spot phage ELISA, Notch2Long; format: binding, human; conditions: for ELISA: spot phage ELISA signal
# [1] = target: T2, Notch2Long (Notch2 EGF6-EGF12) (Homo sapiens, UniProt Q04721); test: SPR binding of synthetic DCPs to Notch2Long; conditions: Biacore S200, 25°C, 50 μL/min; synthetic in vitro folded peptide, 3-fold dilution from 100 μM; biotinylated N2L on chip SA; steady state fitting; at least three independent experiments; n/d = no binding
# T2 construct: Biotinylated N2L protein (D219–E418, made in-house); His tag (cleaved yes); made in house; host or cells: CHO
# T2 sequence (Q04721 219-418): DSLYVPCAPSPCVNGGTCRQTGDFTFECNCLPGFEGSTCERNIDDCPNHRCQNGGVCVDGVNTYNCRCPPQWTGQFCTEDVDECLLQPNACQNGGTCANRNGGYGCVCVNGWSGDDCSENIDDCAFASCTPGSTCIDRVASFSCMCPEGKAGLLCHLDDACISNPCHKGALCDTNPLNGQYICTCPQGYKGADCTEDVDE
# Method: (§1) All binding experiments were performed using a Biacore S200 instrument (GE Healthcare) at 25°C at a flow rate of 50 μL/min. The kinetics and affinity measurements were carried out using either single-cycle or multi-cycle kinetics (SCK or MCK), solvent corrected and referenced by subtracting the signal to the blank flow cell. Binding affinity and kinetic parameters (association and dissociation rate constants, and dissociation equilibrium constant) were calculated with the Biacore S200 Evaluation Software (version 1.1.1, Cytiva) using either a 1:1 binding model or a steady-state equilibrium model (according to the manufacturer’s instructions).
# (§2) Biotinylated N2L protein (D219–E418, made in-house) and NRR protein (A1423–Q1677, made in-house) were captured at around 500, 1000 and 1500 RU on Sensor Chip SA (Cytiva).
# [2] = target: T3, Notch2NRR (Notch2 NRR domain) (Homo sapiens, UniProt Q04721); test: SPR binding of synthetic DCPs to Notch2NRR; conditions: Biacore S200, 25°C; synthetic folded peptide, 3-fold dilution from 100 μM; biotinylated NRR on chip SA; steady state fitting
# T3 construct: NRR protein (A1423–Q1677, made in-house); His tag (cleaved yes); made in house; host or cells: CHO
# T3 sequence (Q04721 1423-1677): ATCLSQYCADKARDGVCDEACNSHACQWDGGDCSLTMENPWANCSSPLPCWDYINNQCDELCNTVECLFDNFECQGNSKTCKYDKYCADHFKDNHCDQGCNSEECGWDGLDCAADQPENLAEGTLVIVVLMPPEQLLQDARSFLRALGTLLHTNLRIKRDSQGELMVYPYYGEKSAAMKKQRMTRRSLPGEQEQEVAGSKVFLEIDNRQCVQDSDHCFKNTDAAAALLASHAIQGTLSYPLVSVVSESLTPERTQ
# Method: as §1, §2
# Notch2NRR = test: Spot phage ELISA, Notch2NRR; format: binding, human; conditions: ratio of signal for target protein over BSA background
# R-spondin = test: Spot phage ELISA, R-spondin; format: binding, human; conditions: for S/N: ratio of signal for target protein over BSA background; for ELISA: spot phage ELISA signal, DCP displayed on M13 p8
# trypsin = test: Phage ELISA of displayed DCPs on immobilized trypsin; conditions: DCP displayed on M13 p3 or p8, phage ELISA on trypsin-coated plates (Fig 1)
# Method: The DCPs, incorporating an N-terminal gD-tag for quantification of display levels, were fused at the C-terminal to the major M13 coat protein p8 or the C-terminal domain of minor coat protein p3 (Fig 1A).
# The display level was analyzed using phage ELISA described previously [47].
compound,measurement,setting,value
"CC[C@H](C)[C@@H]1NC(=O)[C@H](Cc2ccccc2)NC(=O)[C@H](Cc2ccc(O)cc2)NC(=O)[C@H](C(C)C)NC(=O)[C@H](CCSC)NC(=O)[C@H](C(C)C)NC(=O)[C@@H]2CSSC[C@H](NC(=O)[C@H](CC(=O)O)NC(=O)[C@H](Cc3ccccc3)NC(=O)[C@H](C)N)C(=O)N[C@@H](CC(C)C)C(=O)NCC(=O)N[C@@H](CCC(N)=O)C(=O)N[C@H]3CSSC[C@H](NC(=O)[C@H](Cc4ccc(O)cc4)NC(=O)[C@@H]4CCCN4C(=O)[C@H](CCCCN)NC(=O)[C@H]([C@@H](C)O)NC(=O)[C@H](CCSC)NC(=O)[C@H](Cc4c[nH]cn4)NC1=O)C(=O)N[C@@H](CC(N)=O)C(=O)N[C@@H](CO)C(=O)N[C@@H](CO)C(=O)N[C@H](C(=O)N[C@H](C(=O)N[C@@H](CCCNC(=N)N)C(=O)O)[C@@H](C)O)CSSC[C@H](NC(=O)[C@H](CCCNC(=N)N)NC(=O)CNC3=O)C(=O)N[C@@H](CC(=O)O)C(=O)N[C@@H](Cc1ccccc1)C(=O)N[C@@H](Cc1c[nH]cn1)C(=O)N[C@@H](CCCCN)C(=O)N[C@@H](CC(C)C)C(=O)N[C@@H](CCC(N)=O)C(=O)N2 [HtrA1_AVR61] (HELM PEPTIDE1{A.F.D.C.L.G.Q.C.G.R.C.D.F.H.K.L.Q.C.V.M.V.Y.F.I.H.M.T.K.P.Y.C.N.S.S.C.T.R}$PEPTIDE1,PEPTIDE1,4:R3-18:R3|PEPTIDE1,PEPTIDE1,8:R3-31:R3|PEPTIDE1,PEPTIDE1,11:R3-35:R3$$$V2.0; N-terminus and C-terminus assumed)",Kd,"HtrA1 FL; Biacore S200, 25°C, biotinylated HtrA1 FL on chip SA, 10 mM HEPES (8.0), 200mM NaCl, 0.25% CHAPS, 5% DMSO, steady state fitting, n/d = no binding",> 20 µM
same,S/N,HtrA1,24.4
"CC[C@H](C)[C@@H]1NC(=O)[C@@H]2CCCN2C(=O)[C@H](CCC(=O)O)NC(=O)[C@@H]2CSSC[C@@H]3NC(=O)[C@H](Cc4c[nH]cn4)NC(=O)[C@H](Cc4c[nH]c5ccccc45)NC(=O)[C@H](CC(C)C)NC(=O)[C@H]([C@@H](C)O)NC(=O)[C@H](Cc4c[nH]c5ccccc45)NC(=O)CNC(=O)[C@@H](NC(=O)CN)CSSC[C@H](NC(=O)CNC(=O)[C@H](C)NC(=O)[C@H](CC(C)C)NC(=O)[C@H](CSSC[C@@H](C(=O)NCC(=O)O)NC(=O)[C@H](Cc4c[nH]c5ccccc45)NC(=O)[C@H](Cc4c[nH]c5ccccc45)NC1=O)NC(=O)[C@H](CC(=O)O)NC(=O)[C@H](CO)NC(=O)[C@H](CC(=O)O)NC(=O)[C@H](CCC(N)=O)NC(=O)[C@H](CCCCN)NC3=O)C(=O)N[C@@H](C(C)C)C(=O)N2 [N2L-EET-03] (HELM PEPTIDE1{G.C.G.W.T.L.W.H.C.K.Q.D.S.D.C.L.A.G.C.V.C.E.P.I.W.W.C.G}$PEPTIDE1,PEPTIDE1,2:R3-19:R3|PEPTIDE1,PEPTIDE1,9:R3-21:R3|PEPTIDE1,PEPTIDE1,15:R3-27:R3$$$V2.0; N-terminus and C-terminus assumed)",s/n ratio,"Notch2Long; Table 3, affinity maturation clones, signal over BSA background",3.1
same,ELISA,"Notch2Long; Table 3, affinity maturation clones, display (p8 or p3) not given per clone",0.4
same,S/N,"Notch2Long; initial hits, ratio of signal for target protein over BSA background",3.1
same,ELISA,"Notch2Long; initial hits, DCP displayed on M13 p8",0.35
"CC[C@H](C)[C@@H]1NC(=O)[C@@H](NC(=O)CN)CSSC[C@@H]2NC(=O)CNC(=O)[C@H](C)NC(=O)[C@H](CCC(=O)O)NC(=O)[C@@H]3CSSC[C@@H](C(=O)NCC(=O)O)NC(=O)[C@H](CCC(N)=O)NC(=O)[C@H]([C@@H](C)CC)NC(=O)[C@H](Cc4c[nH]c5ccccc45)NC(=O)[C@H](C(C)C)NC(=O)[C@H](CCC(=O)O)NC(=O)[C@H](CSSC[C@H](NC(=O)[C@H](Cc4c[nH]c5ccccc45)NC(=O)[C@H](CC(C)C)NC(=O)[C@H](Cc4c[nH]cn4)NC(=O)[C@H](CO)NC(=O)[C@H](CCCCN)NC1=O)C(=O)N1CCC[C@H]1C(=O)N[C@@H](CCCCN)C(=O)N[C@@H]([C@@H](C)O)C(=O)N[C@@H](CO)C(=O)N[C@@H](CC(=O)O)C(=O)N3)NC(=O)[C@H]([C@@H](C)CC)NC2=O [N2L.EET31.43.24] (HELM PEPTIDE1{G.C.I.K.S.H.L.W.C.P.K.T.S.D.C.E.A.G.C.I.C.E.V.W.I.Q.C.G}$PEPTIDE1,PEPTIDE1,2:R3-19:R3|PEPTIDE1,PEPTIDE1,9:R3-21:R3|PEPTIDE1,PEPTIDE1,15:R3-27:R3$$$V2.0)",Kd,[1],3.5 µM
"CC[C@H](C)[C@@H]1NC(=O)[C@@H](NC(=O)CN)CSSC[C@@H]2NC(=O)CNC(=O)[C@H](C)NC(=O)[C@H](CCC(=O)O)NC(=O)[C@@H]3CSSC[C@@H](C(=O)NCC(=O)O)NC(=O)[C@H](CCC(N)=O)NC(=O)[C@H]([C@@H](C)CC)NC(=O)[C@H](Cc4c[nH]c5ccccc45)NC(=O)[C@H]([C@@H](C)CC)NC(=O)[C@H](CCC(=O)O)NC(=O)[C@H](CSSC[C@H](NC(=O)[C@H](Cc4c[nH]c5ccccc45)NC(=O)[C@H](C(C)C)NC(=O)[C@H](Cc4c[nH]cn4)NC(=O)[C@H](CO)NC(=O)[C@H](CCCNC(=N)N)NC1=O)C(=O)N[C@@H](CCCCN)C(=O)N[C@@H](CCC(N)=O)C(=O)N[C@@H](CC(=O)O)C(=O)N[C@@H](CO)C(=O)N[C@@H](CC(=O)O)C(=O)N3)NC(=O)[C@H]([C@@H](C)CC)NC2=O [N2L.EET31.43.43] (HELM PEPTIDE1{G.C.I.R.S.H.V.W.C.K.Q.D.S.D.C.E.A.G.C.I.C.E.I.W.I.Q.C.G}$PEPTIDE1,PEPTIDE1,2:R3-19:R3|PEPTIDE1,PEPTIDE1,9:R3-21:R3|PEPTIDE1,PEPTIDE1,15:R3-27:R3$$$V2.0)",Kd,[1],3.5 µM
"CC(C)C[C@@H]1NC(=O)[C@@H](NC(=O)[C@H](CC(=O)O)NC(=O)[C@H](Cc2ccccc2)NC(=O)[C@H](C)N)CSSC[C@@H]2NC(=O)[C@H](CCC(N)=O)NC(=O)[C@H](CC(C)C)NC(=O)[C@H](CCCCN)NC(=O)[C@H](Cc3c[nH]cn3)NC(=O)[C@H](Cc3ccccc3)NC(=O)[C@H](CC(=O)O)NC(=O)[C@@H]3CSSC[C@@H](C(=O)N[C@H](C(=O)N[C@@H](CCCNC(=N)N)C(=O)O)[C@@H](C)O)NC(=O)[C@H](CO)NC(=O)[C@H](CO)NC(=O)[C@H](CC(N)=O)NC(=O)[C@H](CSSC[C@H](NC(=O)[C@H](CCC(N)=O)NC(=O)CNC1=O)C(=O)NCC(=O)N[C@@H](CCCNC(=N)N)C(=O)N3)NC(=O)[C@H](Cc1ccc(O)cc1)NC(=O)[C@H](CCC(N)=O)NC(=O)[C@H](CCCCN)NC(=O)[C@H](Cc1ccc(O)cc1)NC(=O)[C@H]([C@@H](C)O)NC(=O)[C@H](Cc1c[nH]c3ccccc13)NC(=O)[C@H](CO)NC(=O)[C@H](Cc1ccc(O)cc1)NC(=O)[C@@H]1CCCN1C(=O)[C@H](C(C)C)NC2=O [N2N-AVR-19] (HELM PEPTIDE1{A.F.D.C.L.G.Q.C.G.R.C.D.F.H.K.L.Q.C.V.P.Y.S.W.T.Y.K.Q.Y.C.N.S.S.C.T.R}$PEPTIDE1,PEPTIDE1,4:R3-18:R3|PEPTIDE1,PEPTIDE1,8:R3-29:R3|PEPTIDE1,PEPTIDE1,11:R3-33:R3$$$V2.0; N-terminus and C-terminus assumed)",Kd,[2],9.4 µM
same,s/n ratio,Notch2NRR,35.7
GCDPWIWQEWGVCKQDSDCLAGCVCGPNGFCG (also: bicyclic or more (positions not given here)) [R-spondin EETI-II 47],S/N,R-spondin,13.7
same,ELISA,R-spondin,1.06
GCLASHPWWSVWCKQDSDCLAGCVCQEMGICG (also: bicyclic or more (positions not given here)) [R-spondin EETI-II 31],S/N,R-spondin,11.4
same,ELISA,R-spondin,0.72
GCPRILKRCKRDSDCLAGCVCRGNGFCG (also: bicyclic or more (positions not given here)) [EETI-mut],phage binding to immobilized trypsin,trypsin,significantly disrupted
GLPVCGETCVGGTCNTPGCTCSWPVCTRN (also: bicyclic or more (positions not given here)) [kalata B1],phage binding to immobilized trypsin,trypsin,did not exhibit any binding signal
"GPTQSFWGWCGGIGYVGGRYCSGTTCQRPDAHWSQCLPGAS (disulfide 10-26, 21-36 (inferred)) [HtrA1_CBDamy86]",Kd,HtrA1 FL,158 µM
same,S/N,HtrA1,22.8
SGSDGGVCPKILKKCRRDSDCPGACICRGNGYCG (also: bicyclic or more (positions not given here)) [MCoTI-II],phage binding to immobilized trypsin,trypsin,showed binding signals
